In US20130331738A1, “COMPOSITIONS AND METHODS FOR POTENTIATING SONOTHROMBOLYSIS” (Board of Trustees University of Arkansas, priority 2012, published 2013):

System: rabbit blood clots
Experiment: In vitro sonothrombolysis of rabbit blood clots in a Mylar flow chamber infused with serum
Settings: CPDL 0.001% w/V added to the MB suspension, complete absence of tPA
Protocol: To assess the combined effect of ultrasound in combination with tPA, a tissue permeabilizer, and microbubbles (MBs) on the efficacy of sonothrombolysis, the following experiment was conducted. Sonothrombolysis was performed on rabbit blood clots situated in a Mylar flow chamber (37.0° C.) infused with serum. In addition, tPA was introduced into the flow chamber at several initial concentrations ranging from 0.0 mg/mL to 0.2 mg/mL. At each tPA concentration, the ultrasound delivery parameters were adjusted to maximize the efficacy of sonothrombolysis of the clots. The efficacy of sonothrombolysis was assessed by determining the % clot mass loss per minute within the flow chamber. The ultrasound delivery parameters that were adjusted in this experiment included pulsed ultrasound intensity (0.1-2.0 W/cm2), ultrasound frequency (0.7-4 MHz), and duty factor (0.05-100%).
Once the ultrasound delivery parameters were established for each tPA concentration, uniformly-sized MBs having diameters ranging from about […] were then added to the flow chamber; the concentration and elasticity of the MBs were adjusted while reducing tPA in order to maintain the initial % clot mass loss per minute. […]

O=C1CCCCCCCCCCCCCCO1 [CPDL, cyclopentadecanolide]
increase of efficacy of sonothrombolysis (% clot mass loss per minute): six-fold
